Assay results as given in patent US7449447B2, “Peptidomimetic NS3-serine protease inhibitors of hepatitis C virus” (priority 2003, dated 2008).
*1 amine or outer side, *2 acyl side, *3 side chain or, on linkers, in order; H or OH if unused. Where a SMILES comes first, the peptide text is derived from it. [ ]: non-standard residue; d: D form. The star is where a group is joined. Pro(3R,4S-CMe2) = CC1(C)[C@@H]2[C@@H](C(=O)O)NC[C@@H]21; Abu(4,4-F2) = N[C@@H](CC(F)F)C(=O)O; Phg = N[C@H](C(=O)O)c1ccccc1; Tle = CC(C)(C)[C@H](N)C(=O)O; CO = O=C([*:1])[*:2]; NHtBu = CC(C)(C)N*

Molecular target: T1, HCV NS3/NS4a serine protease (Hepatitis C virus genotype 1b, UniProt P26663)
T1 construct: amino terminus of the NS3 protease domain (amino acids 3-181) with a tetrapeptide linker; made in house; host or cells: E. coli
T1 sequence (P26663 1013-1207, looked up, natural form): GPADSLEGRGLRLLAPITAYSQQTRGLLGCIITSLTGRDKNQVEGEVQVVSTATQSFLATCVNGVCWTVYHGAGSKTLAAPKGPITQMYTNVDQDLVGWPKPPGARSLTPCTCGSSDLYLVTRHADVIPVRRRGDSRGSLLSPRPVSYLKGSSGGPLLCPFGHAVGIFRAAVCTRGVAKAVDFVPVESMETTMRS
Test: Spectrophotometric assay for HCV protease inhibitory activity (chromogenic ester substrates)
Format: biochemical, hepatitis C virus (strain 1b)
Conditions: single chain NS4A21-32-GSGS-NS3 3-181 protease, 30° C., pH 6.5
Protocol: Spectrophotometric Assay: Spectrophotometric assays for the HCV serine protease were performed on the inventive compounds by following the procedure described by R. Zhang et al., Analytical Biochemistry, 270 (1999) 268-275, the disclosure of which is incorporated herein by reference. The assay based on the proteolysis of chromogenic ester substrates is suitable for the continuous monitoring of HCV NS3 protease activity.
HCV NS3 protease (strain 1b) and its NS4A cofactor were constructed as a recombinant single chain protein. The NS4A cofactor domain (amino acid residues 21-32) was fused in frame to the amino terminus of the NS3 protease domain (amino acids 3-181) with a tetrapeptide linker. This NS4A 21-32-GSGS-NS33-181 construct was then expressed in E. coli and purified to >90% homogeneity. Kinetic parameters were determined and found to be the same as that of the full length NS31-631/NS4A1-54 protein complex produced in the baculovirus system (D. L. Sali et al, Biochemistry, 37 (1998) 3392-340). The details of the cloning, expression, purification and kinetic analysis of the of the single chain recombinant protease have been previously described (S. S. Taremi, et al. Protein Science. 7 (1998) 2143-2149.
Protein concentrations were determined by the Biorad dye method using recombinant HCV protease standards previously quantified by amino acid analysis. Prior to assay initiation, the enzyme storage buffer (50 mM sodium phosphate pH 8.0, 300 mM NaCl, 10% glycerol, 0.05% lauryl maltoside and 10 mM DTT) was exchanged for the assay buffer (25 mM MOPS pH 6.5, 300 mM NaCl, 10% glycerol, 0.05% lauryl maltoside, 5 μM EDTA and 5 μM DTT) utilizing a Biorad Bio-Spin P-6 prepacked column.
Protease Assay: HCV protease assays were performed at 30° C. using a 200 μl reaction mix in a 96-well microtiter plate. Assay buffer conditions (25 mM MOPS pH 6.5, 300 mM NaCl, 10% glycerol, 0.05% lauryl maltoside, 5 μM EDTA and 5 μM DTT) were optimized for the NS3/NS4A heterodimer (D. L. Sali et al, ibid.)). Typically, 100 μl mixtures of buffer, substrate and inhibitor were placed in wells and allowed to preincubate at 30° C. for approximately 3 minutes. One hundred μls of pre-warmed protease (30° C.) in assay buffer, was then used to initiate the reaction to produce a final concentration of 1.3 nM HCV). The Substrate cleavage by the protease was monitored over 60 minutes by measuring the release of the phenylazophenol (PAP) product at an absorbance of 370 nm with a continuous read every 30 seconds using a SpectraMax Plus microtiter plate reader (Molecular Devices, Sunnyvale, Calif.). Background hydrolysis of the substrate was subtracted. Inhibitors were tested over a range of concentrations (final DMSO concentration 4%)
Evaluation of Inhibitors The inhibition constants (Ki) for the competitive inhibitors were determined experimentally at fixed concentrations of enzyme and substrate by plotting vo/vi vs. inhibitor concentration ([I]o) according to the rearranged Michaelis-Menten equation for competitive inhibition kinetics: vo/vi=1+[I]o/(Ki(1+[S]o/Km)), where vo is the uninhibited initial velocity, vi is the initial velocity in the presence of inhibitor at any given inhibitor concentration ([I]o) and [S]o is the substrate concentration used. The resulting data were fitted using linear regression and the resulting slope, 1/(Ki(1+[S]o/Km), was used to calculate the Ki value.

Structure (SMILES) | Ki (Ki, Table 3, rating) | Ki (Ki Rating, Table 2) | other results
CN(C[C@@H](NC(=O)N[C@H](C(=O)N1C[C@H]2[C@@H]([C@H]1C(=O)N[C@@H](CC(F)F)C(=O)NCCc1c[nH]cn1)C2(C)C)C(C)(C)C)C(C)(C)C)S(C)(=O)=O [Example 244] | > 0.5 µM | – | –
CN(C[C@@H](NC(=O)N[C@H](C(=O)N1C[C@H]2[C@@H]([C@H]1C(=O)N[C@@H](CC(F)F)C(=O)NCCc1ccccn1)C2(C)C)C(C)(C)C)C(C)(C)C)S(C)(=O)=O [Example 235] | 0.1 to 0.5 µM | – | –
CC(C)[C@H](NC(=O)N[C@H](C(=O)N1C[C@H]2[C@@H]([C@H]1C(=O)NC(CC(F)F)C(=O)NCCc1ccccc1Cl)C2(C)C)C(C)(C)C)C(=O)OC(C)(C)C (some centres unmarked) [Example 147] | – | > 0.5 µM | –
CC(C)[C@H](NC(=O)N[C@H](C(=O)N1C[C@H]2[C@@H]([C@H]1C(=O)NC(CC(F)F)C(=O)NCCc1ccccc1)C2(C)C)C(C)(C)C)C(=O)O (some centres unmarked) [Example 136] | – | 0.1 to 0.5 µM | –
CCc1ccc(CCNC(=O)[C@H](CC(F)F)NC(=O)[C@@H]2[C@@H]3[C@H](CN2C(=O)[C@@H](NC(=O)N[C@H](CN(C)S(C)(=O)=O)C(C)(C)C)C(C)(C)C)C3(C)C)cc1 [Example 268] | < 0.1 µM | – | –
CN(C[C@@H](NC(=O)N[C@H](C(=O)N1C[C@H]2[C@@H]([C@H]1C(=O)N[C@@H](CC(F)F)C(=O)N[C@H]1CCCC[C@@H]1OCc1ccccc1)C2(C)C)C(C)(C)C)C(C)(C)C)S(C)(=O)=O [Example 255] | > 0.5 µM | – | –
COC(=O)c1ccc(CCNC(=O)[C@H](CC(F)F)NC(=O)[C@@H]2[C@@H]3[C@H](CN2C(=O)[C@@H](NC(=O)N[C@H](CN(C)S(C)(=O)=O)C(C)(C)C)C(C)(C)C)C3(C)C)c(Cl)c1 [Example 105] | – | – | Ki (Ki, Table 1): 0.024 µM
CN(C[C@@H](NC(=O)N[C@H](C(=O)N1C[C@H]2[C@@H]([C@H]1C(=O)N[C@@H](CC(F)F)C(=O)NCCc1cccnc1)C2(C)C)C(C)(C)C)C(C)(C)C)S(C)(=O)=O [Example 236] | < 0.1 µM | – | –
COc1cc(CCNC(=O)[C@H](CC(F)F)NC(=O)[C@@H]2[C@@H]3[C@H](CN2C(=O)[C@@H](NC(=O)N[C@H](CN(C)S(C)(=O)=O)C(C)(C)C)C(C)(C)C)C3(C)C)cc(OC)c1O [Example 297] | 0.1 to 0.5 µM | – | –
CN(C[C@@H](NC(=O)N[C@H](C(=O)N1C[C@H]2[C@@H]([C@H]1C(=O)N[C@@H](CC(F)F)C(=O)NCCc1ccc(Oc3ccccc3)cc1)C2(C)C)C(C)(C)C)C(C)(C)C)S(C)(=O)=O [Example 291] | < 0.1 µM | – | –
COC(=O)c1ccc(CCNC(=O)[C@H](CC(F)F)NC(=O)[C@@H]2[C@@H]3[C@H](CN2C(=O)[C@@H](NC(=O)N[C@H](C(=O)OC(C)(C)C)C(C)(C)C)C(C)(C)C)C3(C)C)cc1 [Example 139] | – | 0.1 to 0.5 µM | –
CC(C)(C)[C@H](NC(=O)NC1(CS(C)(=O)=O)CCCCC1)C(=O)N1C[C@H]2[C@@H](C1C(=O)N[C@@H](CC(F)F)C(=O)NCCc1ccc(C(=O)O)cc1)C2(C)C (some centres unmarked) [Example 107] | – | – | Ki (Ki, Table 1): 0.029 µM
CC(NC(=O)[C@H](CC(F)F)NC(=O)[C@@H]1[C@@H]2[C@H](CN1C(=O)[C@@H](NC(=O)N[C@H](CN(C)S(C)(=O)=O)C(C)(C)C)C(C)(C)C)C2(C)C)c1ccc(Cl)cc1 (some centres unmarked) [Example 226] | > 0.5 µM | – | –
COC(=O)c1ccc(CCNC(=O)[C@H](CC(F)F)NC(=O)[C@@H]2[C@@H]3[C@H](CN2C(=O)[C@@H](NC(=O)N[C@H](CN(C)S(C)(=O)=O)C(C)(C)C)C(C)(C)C)C3(C)C)cc1 [Example 103] | – | – | Ki (Ki, Table 1): 0.022 µM
COc1ccc(CCNC(=O)[C@H](CC(F)F)NC(=O)[C@@H]2[C@@H]3[C@H](CN2C(=O)[C@@H](NC(=O)N[C@H](CN(C)S(C)(=O)=O)C(C)(C)C)C(C)(C)C)C3(C)C)cc1OC [Example 280] | < 0.1 µM | – | –
COC(=O)c1ccc(CCNC(=O)[C@H](CC(F)F)NC(=O)[C@@H]2[C@@H]3[C@H](CN2C(=O)[C@@H](NC(=O)N[C@H](CN2CCCS2(=O)=O)C(C)(C)C)C(C)(C)C)C3(C)C)c(Cl)c1 [Example 108] | – | – | Ki (Ki, Table 1): 0.03 µM

Structure (SMILES) | Ki (Ki, Table 3, rating) | Ki (Ki Rating, Table 2) | other results
CCOC(=O)CCNC(=O)[C@H](CC(F)F)NC(=O)[C@@H]1[C@@H]2[C@H](CN1C(=O)[C@@H](NC(=O)OC(C)(C)C)C(C)(C)C)C2(C)C [Example 163] | – | > 0.5 µM | –
CC(C)[C@H](NC(=O)N[C@H](C(=O)N1C[C@H]2[C@@H]([C@H]1C(=O)N[C@@H](CC(F)F)C(=O)NCCc1ccc(C(N)=O)cc1)C2(C)C)C(C)(C)C)C(=O)OC(C)(C)C [Example 126] | – | 0.1 to 0.5 µM | –
CC1(NC(=O)N[C@H](C(=O)N2C[C@H]3[C@@H]([C@H]2C(=O)N[C@@H](CC(F)F)C(=O)NCCC(=O)O)C3(C)C)C(C)(C)C)CCCCC1 [Example 165] | – | > 0.5 µM | –
COC(=O)c1ccc(CCNC(=O)[C@H](CC(F)F)NC(=O)[C@@H]2[C@H]3CC(C)(C)O[C@H]3CN2C(=O)[C@@H](NC(=O)OCc2ccccc2)C2CCCCC2)cc1 [Example 173] | – | > 0.5 µM | –
CN(C[C@@H](NC(=O)N[C@H](C(=O)N1C[C@H]2[C@@H]([C@H]1C(=O)N[C@@H](CC(F)F)C(=O)NCCc1ccc(Cl)cc1)C2(C)C)C(C)(C)C)C(C)(C)C)S(C)(=O)=O [Example 250] | < 0.1 µM | – | –
CN(C[C@@H](NC(=O)N[C@H](C(=O)N1C[C@H]2[C@@H]([C@H]1C(=O)N[C@@H](CC(F)F)C(=O)NCCS(=O)(=O)C(C)(C)C)C2(C)C)C(C)(C)C)C(C)(C)C)S(C)(=O)=O [Example 253] | > 0.5 µM | – | –
CN(C[C@@H](NC(=O)N[C@H](C(=O)N1C[C@H]2[C@@H]([C@H]1C(=O)N[C@@H](CC(F)F)C(=O)NCCc1ccc(F)cc1)C2(C)C)C(C)(C)C)C(C)(C)C)S(C)(=O)=O [Example 265] | < 0.1 µM | – | –
Cc1ccc(CCNC(=O)[C@H](CC(F)F)NC(=O)[C@@H]2[C@@H]3[C@H](CN2C(=O)[C@@H](NC(=O)N[C@H](CN(C)S(C)(=O)=O)C(C)(C)C)C(C)(C)C)C3(C)C)cc1 [Example 261] | < 0.1 µM | – | –
COc1ccccc1CCNC(=O)[C@H](CC(F)F)NC(=O)[C@@H]1[C@@H]2[C@H](CN1C(=O)[C@@H](NC(=O)N[C@H](CN(C)S(C)(=O)=O)C(C)(C)C)C(C)(C)C)C2(C)C [Example 269] | < 0.1 µM | – | –
C[C@H](NC(=O)[C@H](CC(F)F)NC(=O)[C@@H]1[C@@H]2[C@H](CN1C(=O)[C@@H](NC(=O)N[C@H](CN(C)S(C)(=O)=O)C(C)(C)C)C(C)(C)C)C2(C)C)[C@H](O)c1ccccc1 [Example 248] | < 0.1 µM | – | –
CC1(NC(=O)N[C@H](C(=O)N2C[C@H]3[C@@H]([C@H]2C(=O)NC(CC(F)F)C(=O)NCCc2ccccc2)C3(C)C)C(C)(C)C)CCCCC1 (some centres unmarked) [Example 145] | – | > 0.5 µM | –
CC(C)[C@H](NC(=O)N[C@H](C(=O)N1C[C@H]2[C@@H]([C@H]1C(=O)N[C@@H](CC(F)F)C(=O)NCCc1ccc(C(=O)N(C)C)cc1)C2(C)C)C(C)(C)C)C(=O)O [Example 131] | – | 0.1 to 0.5 µM | –
CN(C)C(=O)[C@@H](NC(=O)CNC(=O)[C@H](CC(F)F)NC(=O)[C@@H]1[C@@H]2[C@H](CN1C(=O)[C@@H](NC(=O)NC(C)(C)C)C(C)(C)C)C2(C)C)c1ccccc1 [Example 166] ({NHtBu-CO}-[Tle][Pro(3R,4S-CMe2)][Abu(4,4-F2)]G[Phg]-NMe2) | – | > 0.5 µM | –
CC(C)[C@H](NC(=O)N[C@H](C(=O)N1C[C@H]2[C@@H]([C@H]1C(=O)N[C@@H](CC(F)F)C(=O)NCCc1ccc(C(=O)O)cc1)C2(C)C)C(C)(C)C)C(=O)c1ccccc1 [Example 132] | – | 0.1 to 0.5 µM | –
CN(C[C@@H](NC(=O)N[C@H](C(=O)N1C[C@H]2[C@@H]([C@H]1C(=O)N[C@@H](CC(F)F)C(=O)NCCc1ccc(C(C)(C)C)cc1)C2(C)C)C(C)(C)C)C(C)(C)C)S(C)(=O)=O [Example 276] | < 0.1 µM | – | –
COC(=O)c1ccc(CCNC(=O)[C@H](CC(F)F)NC(=O)[C@@H]2[C@@H]3[C@H](CN2C(=O)[C@@H](NC(=O)OC(C)(C)C)C(C)(C)C)C3(C)C)cc1 [Example 148] | – | > 0.5 µM | –
